From patent US11161856B2 (H. Lundbeck A/S, priority 2017, dated 2021)

Columns and labels:
[1] = biological target: T1, MGLL (Mus musculus, UniProt O35678); test: In vitro competitive activity-based protein profiling, mouse brain proteome (MGLL); type: biochemical; design: IC50 MGLL Brain (Mouse, μM): scale not given here; details: for % Inh MGLL Brain (Mouse, μM): concentration not given (μM)
T1 construct: Brain; from tissue; host or cells: mouse brain proteome
T1 sequence (O35678 1-303): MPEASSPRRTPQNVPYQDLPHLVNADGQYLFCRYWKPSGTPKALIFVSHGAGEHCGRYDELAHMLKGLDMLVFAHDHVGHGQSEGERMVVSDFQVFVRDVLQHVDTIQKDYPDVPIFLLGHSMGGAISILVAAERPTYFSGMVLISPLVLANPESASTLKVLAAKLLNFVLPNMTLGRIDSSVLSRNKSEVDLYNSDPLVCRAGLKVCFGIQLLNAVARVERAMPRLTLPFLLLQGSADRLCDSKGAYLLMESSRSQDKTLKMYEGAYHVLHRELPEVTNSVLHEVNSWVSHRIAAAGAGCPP

[2] = biological target: T2, ABHD6 (Mus musculus, UniProt Q8R2Y0); test: In vitro competitive activity-based protein profiling, mouse brain proteome (ABHD6); type: biochemical; details: for % Inh ABHD6 Brain (Mouse, μM): mouse brain proteome, concentration not given (μM)
T2 construct: Brain; from tissue; host or cells: mouse brain proteome
T2 sequence (Q8R2Y0 1-336): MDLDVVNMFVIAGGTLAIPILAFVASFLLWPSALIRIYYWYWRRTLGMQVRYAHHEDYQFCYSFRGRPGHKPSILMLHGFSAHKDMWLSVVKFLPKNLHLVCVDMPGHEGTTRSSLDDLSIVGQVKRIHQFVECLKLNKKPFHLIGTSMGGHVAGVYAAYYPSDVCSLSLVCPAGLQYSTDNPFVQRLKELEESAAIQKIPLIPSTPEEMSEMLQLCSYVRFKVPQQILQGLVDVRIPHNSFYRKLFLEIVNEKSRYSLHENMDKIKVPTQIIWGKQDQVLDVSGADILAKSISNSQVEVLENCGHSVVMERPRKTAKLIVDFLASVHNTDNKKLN
Method: [The source words this procedure for another target and reports this target under the same test.] In Vitro Competitive Activity-Based Protein Profiling.
Proteomes (human prefrontal cortex or cell membrane fractions) (50 μL, 1.0 mg/mL total protein concentration) were preincubated with varying concentrations of inhibitors at 37° C. After 30 min, FP-Rh or HT-01 (1.0 μL, 50 μM in DMSO) was added and the mixture was incubated for another 30 min at room temperature. Reactions were quenched with SDS loading buffer (15 μL-4×) and run on SDS-PAGE.

Structure (SMILES): CC(=O)N1CCCc2cccc(CN3CC4(CCN(C(=O)OC(C(F)(F)F)C(F)(F)F)CC4)C3)c21 [Example 15, 1,1,1,3,3,3-Hexafluoropropan-2-yl 2-((1-acetyl-1,2,3,4-tetrahydroquinolin-8-yl)methyl)-2,7-diazaspiro[3.5]nonane-7-carboxylate]
- IC50 MGLL Brain (Mouse, μM) [1]: * * *
- % Inh MGLL Brain (Mouse, μM) [1]: ### (### is ≥75%)
- % Inh ABHD6 Brain (Mouse, μM) [2]: ### (### is ≥75%)

Structure (SMILES): CCN1CCCc2cccc(CN3CC4(CCN(C(=O)OC(C(F)(F)F)C(F)(F)F)CC4)C3)c21 [Example 16, 1,1,1,3,3,3-Hexafluoropropan-2-yl 2-((1-ethyl-1,2,3,4-tetrahydroquinolin-8-yl)methyl)-2,7-diazaspiro[3.5]nonane-7-carboxylate]
- IC50 MGLL Brain (Mouse, μM) [1]: * * *
- % Inh MGLL Brain (Mouse, μM) [1]: ### (### is ≥75%)
- % Inh ABHD6 Brain (Mouse, μM) [2]: ### (### is ≥75%)

Structure (SMILES): O=C(OC(C(F)(F)F)C(F)(F)F)N1CC2(CCN(Cc3ccc(N4CCCC4)cc3)CC2)C1 [Example 17, 1,1,1,3,3,3-hexafluoropropan-2-yl 7-(4-(pyrrolidin-1-yl)benzyl)-2,7-diazaspiro[3.5]nonane-2-carboxylate]
- % Inh MGLL Brain (Mouse, μM) [1]: ### (### is ≥75%)
- % Inh ABHD6 Brain (Mouse, μM) [2]: ### (### is ≥75%)

Structure (SMILES): O=C(OC(C(F)(F)F)C(F)(F)F)N1CC2(CCN(Cc3ccc(CN4CCOCC4)cc3)CC2)C1 [Example 18, 1,1,1,3,3,3-Hexafluoropropan-2-yl 7-(4-(morpholinomethyl)benzyl)-2,7-diazaspiro[3.5]nonane-2-carboxylate]
- % Inh MGLL Brain (Mouse, μM) [1]: ## (## is between 25 and 75%)
- % Inh ABHD6 Brain (Mouse, μM) [2]: ### (### is ≥75%)

Structure (SMILES): Cc1cc(-c2ccccc2)ccc1CN1CCC2(CC1)CN(C(=O)OC(C(F)(F)F)C(F)(F)F)C2 [Example 19, 1,1,1,3,3,3-Hexafluoropropan-2-yl 7-((3-methyl-[1,1′-biphenyl]-4-yl)methyl)-2,7-diazaspiro[3.5]nonane-2-carboxylate]
- % Inh MGLL Brain (Mouse, μM) [1]: ## (## is between 25 and 75%)
- % Inh ABHD6 Brain (Mouse, μM) [2]: ### (### is ≥75%)

Structure (SMILES): O=C(OC(C(F)(F)F)C(F)(F)F)N1CCC2(CCN(Cc3ccc(Cl)cc3N3CCC(F)CC3)CC2)C1 [Example 28, 1,1,1,3,3,3-Hexafluoropropan-2-yl 8-(4-chloro-2-(4-fluoropiperidin-1-yl)benzyl)-2,8-diazaspiro[4.5]decane-2-carboxylate]
- IC50 MGLL Brain (Mouse, μM) [1]: * * *
- % Inh MGLL Brain (Mouse, μM) [1]: ### (### is ≥75%)
- % Inh ABHD6 Brain (Mouse, μM) [2]: # (# is ≤25%)

Structure (SMILES): CC(=O)N1CCC2(CC1)CCN(c1cc(Cl)ccc1CN1CCN(C(=O)OC(C(F)(F)F)C(F)(F)F)CC1)C2 [Example 29, 1,1,1,3,3,3-Hexafluoropropan-2-yl 4-(2-(8-acetyl-2,8-diazaspiro[4.5]decan-2-yl)-4-chlorobenzyl)piperazine-1-carboxylate]
- IC50 MGLL Brain (Mouse, μM) [1]: * * *
- % Inh MGLL Brain (Mouse, μM) [1]: ### (### is ≥75%)
- % Inh ABHD6 Brain (Mouse, μM) [2]: # (# is ≤25%)

Structure (SMILES): CS(=O)(=O)N1CCC2(CCN(c3cc(Cl)ccc3CN3CCN(C(=O)OC(C(F)(F)F)C(F)(F)F)CC3)C2)CC1 [Example 30, 1,1,1,3,3,3-Hexafluoropropan-2-yl 4-(4-chloro-2-(8-(methylsulfonyl)-2,8-diazaspiro[4.5]decan-2-yl)benzyl)piperazine-1-carboxylate]
- IC50 MGLL Brain (Mouse, μM) [1]: * * *
- % Inh MGLL Brain (Mouse, μM) [1]: ### (### is ≥75%)
- % Inh ABHD6 Brain (Mouse, μM) [2]: # (# is ≤25%)

Structure (SMILES): CCN1CCCc2cccc(CN3CCC4(CC3)CN(C(=O)OC(C(F)(F)F)C(F)(F)F)C4)c21 [Example 31, 1,1,1,3,3,3-Hexafluoropropan-2-yl 7-((1-ethyl-1,2,3,4-tetrahydroquinolin-8-yl)methyl)-2,7-diazaspiro[3.5]nonane-2-carboxylate]
- % Inh MGLL Brain (Mouse, μM) [1]: ## (## is between 25 and 75%)
- % Inh ABHD6 Brain (Mouse, μM) [2]: ### (### is ≥75%)

Structure (SMILES): O=C(OC(C(F)(F)F)C(F)(F)F)N1CCC2(CC1)CN(Cc1ccc(Cl)cc1N1CCCC1)C2 [Example 34]
- % Inh MGLL Brain (Mouse, μM) [1]: ### (### is ≥75%)
- % Inh ABHD6 Brain (Mouse, μM) [2]: ### (### is ≥75%)

Structure (SMILES): O=C(OC(C(F)(F)F)C(F)(F)F)N1CCC2(CC1)CN(Cc1ccc(C(F)(F)F)cc1N1CCCCC1)C2 [Example 35]
- % Inh MGLL Brain (Mouse, μM) [1]: ### (### is ≥75%)
- % Inh ABHD6 Brain (Mouse, μM) [2]: ## (## is between 25 and 75%)

Structure (SMILES): O=C(OC(C(F)(F)F)C(F)(F)F)N1CCC2(CC1)CN(Cc1ccc(C(F)(F)F)cc1N1CCOCC1)C2 [Example 36, 1,1,1,3,3,3-Hexafluoropropan-2-yl 2-(2-morpholino-4-(trifluoromethyl)benzyl)-2,7-diazaspiro[3.5]nonane-7-carboxylate]
- % Inh MGLL Brain (Mouse, μM) [1]: ### (### is ≥75%)
- % Inh ABHD6 Brain (Mouse, μM) [2]: ### (### is ≥75%)

Structure (SMILES): O=C(OC(C(F)(F)F)C(F)(F)F)N1CC2(CCN(Cc3ccc(Cl)cc3N3CCOCC3)CC2)C1 [Example 37, 1,1,1,3,3,3-Hexafluoropropan-2-yl 7-(4-chloro-2-morpholinobenzyl)-2,7-diazaspiro[3.5]nonane-2-carboxylate]
- % Inh MGLL Brain (Mouse, μM) [1]: ### (### is ≥75%)
- % Inh ABHD6 Brain (Mouse, μM) [2]: ### (### is ≥75%)

Structure (SMILES): O=C(OC(C(F)(F)F)C(F)(F)F)N1CCC2(CC1)CN(Cc1ccc(Cl)cc1N1CCCCC1)C2 [Example 38, 1,1,1,3,33-Hexafluoropropan-2-yl 2-(4-chloro-2-(piperidin-1-yl)benzyl)-2,7-diazaspiro[3.5]nonane-7-carboxylate]
- % Inh MGLL Brain (Mouse, μM) [1]: ### (### is ≥75%)
- % Inh ABHD6 Brain (Mouse, μM) [2]: ## (## is between 25 and 75%)

Structure (SMILES): O=C(OC(C(F)(F)F)C(F)(F)F)N1CCC2(CC1)CN(Cc1ccc(Cl)cc1N1CCOCC1)C2 [Example 39, 1,1,1,3,3,3-Hexafluoropropan-2-yl 2-(4-chloro-2-morpholinobenzyl)-2,7-diazaspiro[3.5]nonane-7-carboxylate]
- % Inh MGLL Brain (Mouse, μM) [1]: ### (### is ≥75%)
- % Inh ABHD6 Brain (Mouse, μM) [2]: ### (### is ≥75%)

Structure (SMILES): O=C(OC(C(F)(F)F)C(F)(F)F)N1CC2(CCN(Cc3ccc(C(F)(F)F)cc3N3CCOCC3)CC2)C1 [Example 40, 1,1,1,3,3,3-Hexafluoropropan-2-yl 7-(2-morpholino-4-(triiluoromethyl)benzyl)-2,7-diazaspiro[3.5]nonane-2-carboxylate]
- % Inh MGLL Brain (Mouse, μM) [1]: ### (### is ≥75%)
- % Inh ABHD6 Brain (Mouse, μM) [2]: ### (### is ≥75%)

Structure (SMILES): O=C(OC(C(F)(F)F)C(F)(F)F)N1CCC2(CC1)CN(Cc1c(N3CCCCC3)cccc1C(F)(F)F)C2 [Example 41, 1,1,1,3,3,3-Hexafluoropropan-2-yl 2-(2-(piperidin-1-yl)-6-(trifluoromethyl)benzyl)-2,7-diazaspiro[3.5]nonane-7-carboxylate]
- % Inh MGLL Brain (Mouse, μM) [1]: ### (### is ≥75%)
- % Inh ABHD6 Brain (Mouse, μM) [2]: ## (## is between 25 and 75%)
- IC50 ([2]; mouse proteome): 100 to 1000 nM

Structure (SMILES): O=C(OC(C(F)(F)F)C(F)(F)F)N1CCC2(CC1)CN(Cc1c(Cl)cccc1N1CCCC1)C2 [Example 42, 1,1,1,3,3,3-Hexafluoropropan-2-yl 2-(2-chloro-6-(pyrrolidin-1-yl)benzyl)-2,7-diazaspiro[3.5]nonane-7-carboxylate]
- % Inh MGLL Brain (Mouse, μM) [1]: ### (### is ≥75%)
- % Inh ABHD6 Brain (Mouse, μM) [2]: ### (### is ≥75%)

Structure (SMILES): O=C(OC(C(F)(F)F)C(F)(F)F)N1CCC2(CC1)CN(Cc1c(N3CCOCC3)cccc1C(F)(F)F)C2 [Example 43, 1,1,1,3,3,3-Hexafluoropropan-2-yl 2-(2-morpholino-6-(trifluoromethyl)benzyl)-2,7-diazaspiro[3.5]nonane-7-carboxylate]
- % Inh MGLL Brain (Mouse, μM) [1]: ### (### is ≥75%)
- % Inh ABHD6 Brain (Mouse, μM) [2]: ## (## is between 25 and 75%)

Structure (SMILES): CS(=O)(=O)N1CCN(c2cccc(Cl)c2CN2CC3(CCN(C(=O)OC(C(F)(F)F)C(F)(F)F)CC3)C2)CC1 [Example 44, 1,1,1,3,3,3-Hexafluoropropan-2-yl 2-(2-chloro-6-(4-(methylsulfonyl)piperazin-1-yl)benzyl)-2,7-diazaspiro[3.5]nonane-7-carboxylate]
- % Inh MGLL Brain (Mouse, μM) [1]: ### (### is ≥75%)
- % Inh ABHD6 Brain (Mouse, μM) [2]: ### (### is ≥75%)

Structure (SMILES): O=C(OC(C(F)(F)F)C(F)(F)F)N1CCC2(CC1)CN(Cc1c(Cl)cccc1N1CCCCC1)C2 [Example 45, 1,1,1,3,3,3-Hexafluoropropan-2-yl 2-(2-chloro-6-(piperidin-1-yl)benzyl)-2,7-diazaspiro[3,5]nonane-7-carboxylate]
- % Inh MGLL Brain (Mouse, μM) [1]: ### (### is ≥75%)
- % Inh ABHD6 Brain (Mouse, μM) [2]: ### (### is ≥75%)

Structure (SMILES): CCN1CCC2(CCN(c3cc(Cl)cc(CN4CCCC45CN(C(=O)OC(C(F)(F)F)C(F)(F)F)C5)c3)CC2)C1 [Example 235, 1,1,1,3,3,3-Hexafluoropropan-2-yl 5-(3-chloro-5-(2-ethyl-2,8-diazaspiro[4.5]decan-8-yl)benzyl)-2,5-diazaspiro[3.4]octane-2-carboxylate]
- % Inh ABHD6 Brain (Mouse, μM) [2]: ### (### is ≥75%)
